Assay results: US9243036B2, “Anti-microbial activity of synthetic peptides” (THE UNITED STATES OF AMERICA, as represented by the …, priority 2012, dated 2016)
≈ marks a conversion by molar mass, not a printed value. Where two headings read alike, the source gives them in different places. Residues, ends and D or L forms follow the SMILES beside them.

Experiments:
Type in all cases: cell-based
P. aeruginosa [1] = assay: Anti-bacterial activity in spiked plasma; conditions: 2 h
Procedure: (§1) The anti-bacterial activity of the peptide in the presence of homologous plasma and platelets were assessed. Platelet Concentrates (PCs) in bags were obtained and stored at room temperature as described earlier (Mohan, K. V. et al., (2010) Transfusion 50, 166-173). Plasma was isolated from the PC bag by collecting 25 ml of PCs and subjecting the sample to a low speed centrifugation step to separate PLT-rich plasma from plasma. For assays log phase cultures of bacteria grown in Luria-Bertani (LB) broth were centrifuged at 3000×g and suspended in 1×PBS pH7.4. Bacterial titers were estimated by measuring the optical density (OD) and microscopy. Approximately 10^5 CFU/ml of each bacterial strain was spiked into 0.1 ml of plasma or platelets and incubated with peptide at concentrations ranging from 50 to 0 μg/ml. Incubation was carried out at room temperature for 2 h on a shaker. At the end of 2-h exposure period, a fixed volume of the suspension was plated on NA plates, and incubating at 37° C. for 18 to 24 h. Bactericidal activity was measured by log-reduction by viable bacteria.

B. cereus = assay: Anti-bacterial activity in spiked plasma; conditions: even at 50 μg/ml
Procedure: as §1

S. aureus = assay: Anti-bacterial activity in spiked plasma; conditions: even at 50 μg/ml
Procedure: as §1

S. epidermidis = assay: Anti-bacterial activity in spiked plasma; conditions: even at 50 μg/ml
Procedure: as §1

P. aeruginosa [2] = assay: Time-kill kinetics; conditions: P. aeruginosa ATCC 12121; 27853
Procedure: (§2) In vitro anti-bacterial activity of EC5. The test microorganisms mentioned earlier in the experimental procedures were used to evaluate the bactericidal activity of EC5 peptide. The minimum inhibitory concentrations (MICs) of the peptide were determined by standard dilution assay as recommended by Clinical and Laboratory Standard Institutes (CLSI) guidelines (Azad, M. A., et al., (2011) Antimicrob. Agents Chemother. 55, 2137-2145). Bacteria were grown to mid-logarithmic phase in cation-supplemented Mueller-Hinton broth (MHB) (Becton Dickinson, Sparks, Md.) on an orbital shaker (37° C.) and diluted to a 0.5 McFarland standard to a final volume of 1 ml. Decreasing concentrations of the peptide were incubated with the microorganisms. Results were recorded by visual inspection after 24 h of incubation at 37° C. Assay was repeated three separate times to ensure reproducibility. […] EC5 concentrations 0x, 0.5x, 1x, and 2×MIC were incubated with logarithmic phase of bacteria of approximately 10^5 CFU/ml in an orbital shaker for 48 h at 37° C. Samples were drawn and plated on NA plates. Polymyxin B was used as a positive control and peptide with no anti-bacterial activity from our previous studies was used as a negative control.

E. coli [3] = assay: Time-kill kinetics
Procedure: as §2

P. aeruginosa [4] = tested on: P. aeruginosa
Procedure: as §2

K pneumoniae = tested on: K pneumoniae
Procedure: as §2

E. coli [5] = tested on: E. coli
Procedure: as §2

other bacteria tested = assay: 2 h incubation of mid-logarithmic cultures with peptide, CFU on NA plates; conditions: even at 50 μg/ml
Procedure: All bacterial strains used in this study originated from ATCC (Manassas, Va.): S. aureus (ATCC 25923; ATCC 35548), S. epidermidis (ATCC 35983), E. coli (ATCC 700928; ATCC 25922), P. aeruginosa (ATCC 27853; ATCC 12121), K pneumoniae (ATCC 10031; ATCC 13885) and B. cereus (ATCC 11778). Cultures were maintained and subcultured periodically on nutrient agar plates and stored at 4 to 8° C. until tested. Stock cultures of all bacteria were stored in tryptic soy broth with 10% glycerol at −70° C. Log-phase cultures of bacteria grown in Miller's Luria-Bertani (LB) broth (Mediatech Inc, Herndon, Va.) were concentrated by centrifugation at 3000×g and dilutions were prepared with phosphate-buffered saline (PBS; pH 7.4) (Mediatech Inc, Herndon, Va.). In all experiments bacterial titers were estimated by optical density and confirmed by quantitative culture by plating on nutrient agar (NA) plates.
Mid-logarithmic phase cultures of bacteria with an inoculum of 10^5 CFU/ml were incubated with peptide concentrations ranging from 0 to 50 μg/ml in a shaker incubator for 2 h following which the samples were plated on NA agar plates and CFU determined.

P. aeruginosa [6] = assay: Cytoplasmic membrane depolarization assay (diSC3-5) with parallel CFU plating; conditions: EC5 at 8 μg/ml and 16 μg/ml
Procedure: (§3) Membrane depolarization activity (Δψ) of the peptide was determined with intact E. coli and P. aeruginosa cells and the membrane potential-sensitive fluorescent dye, 3,3′-dipropylthiadicarbocyanine Iodide (diSC (3)5) (Invitrogen, Oregon), according to described methods (Sims, P. J., et al (1974) Biochemistry 13, 3315-3330). Briefly, bacterial cells of mid-logarithmic phase were harvested by centrifugation and washed twice with HEPES buffer (5 mM HEPES, 5 mM glucose, pH 7.6). The cells were suspended in the same buffer to an OD of 0.05. The cell suspension was incubated with […] diSC (3)5 until maximal uptake of the dye. 100 mM KCl was added to equilibrate the cytoplasmic and external potassium ion concentration of peptide, and fluorescence was monitored at an excitation wavelength of 622 nm and an emission wavelength of 670 nm. Polymyxin B was used as a positive control and S. aureus cells were used as negative control. Simultaneously the cells were plated on NA plates and incubated at 37° C. overnight to assess the number of CFU.
(§4) Cytoplasmic depolarization assay(Δψ) was performed using the membrane potential sensitive dye 3,3′-dipropylthiadicarbocyanine iodide (diSC3-5) (Zang, L. et al., (2001) J. Biol. Chem. 276, 35714-35722). This dye can cross the outer membrane of the bacterial cell and become concentrated in the cytoplasmic membrane and thereby it self-quenches its own fluorescence. Upon addition of a membrane-permeabilizing agent the dye is released with consequent increase in the fluorescence. EC5 at 8 μg/ml and 16 μg/ml caused rapid depolarization of the cytoplasmic membrane in both E. coli and P. aeruginosa resulting in the release of diSC3-5 within 5 min (FIG. 9C). […] However Polymyxin B even at its MIC of 0.5 μg/ml caused slow release of diSC3-5 when compared to EC5.

E. coli [7] = assay: as above; conditions: EC5 at 8 μg/ml and 16 μg/ml
Procedure: as §3, §4

SMILES: CC[C@H](C)[C@H](NC(=O)[C@H](CCCCN)NC(=O)[C@H](CCCNC(=N)N)NC(=O)[C@H](Cc1ccccc1)NC(=O)[C@H](CC(C)C)NC(=O)[C@H](CC(C)C)NC(=O)[C@@H](N)CCCNC(=N)N)C(=O)N[C@@H](CCCNC(=N)N)C(=O)N[C@@H](CCCNC(=N)N)C(=O)N[C@@H](CC(C)C)C(=O)N[C@@H](CCCCN)C(=O)N[C@@H](CCCNC(=N)N)C(=O)O [EC5, RLLFRKIRRLKR] (H-RLLFRKIRRLKR-OH; N-terminus and C-terminus assumed)
- reduction of P. aeruginosa in plasma (P. aeruginosa [1]; EC5 12.5 μg/ml): ~3 log10 CFU/ml
- reduction of P. aeruginosa in plasma (P. aeruginosa [1]; EC5 25 μg/ml): around 4 log10 CFU/ml
- bactericidal activity in homologous plasma, in words (P. aeruginosa [1]; EC5 50 μg/ml): inhibited
- reduction of P. aeruginosa in plasma (P. aeruginosa [1]; EC5 50 μg/ml): around 5 log10 CFU/ml
- reduction of B. cereus in plasma (B. cereus): failed to cause a significant reduction
- reduction of S. aureus in plasma (S. aureus): failed to cause a significant reduction
- reduction of S. epidermidis in plasma (S. epidermidis): failed to cause a significant reduction
- regrowth (P. aeruginosa [2]): no regrowth until 24 hrs
- time to complete inhibition (P. aeruginosa [2]): 5 min
- reduction of E. coli (E. coli [3]; 4 μg/ml, around 45 min of exposure): 2-3 log10 CFU/ml
- regrowth (E. coli [3]; E. coli ATCC 700928, 25922): no regrowth until 24 hrs
- time to complete inhibition (E. coli [3]; E. coli ATCC 700928, 25922): 5 min
- killing of E. coli (E. coli [3]; MBC concentration of 8 μg/ml): complete killing
- MIC (P. aeruginosa [4]): 16 to 32 µg/mL
- Minimum Bactericidal Concentration (MBC) (P. aeruginosa [4]): 8 µg/mL
- MIC (P. aeruginosa [4]; P. aeruginosa ATCC 27853): 8 µg/mL (≈ 4.83 µM)
- MIC (P. aeruginosa [4]; P. aeruginosa, strain not named): 8 µg/mL (≈ 4.83 µM)
- MIC (K pneumoniae): 64 to 128 µg/mL
- MIC (E. coli [5]): 8 µg/mL (≈ 4.83 µM)
- Minimum Bactericidal Concentration (MBC) (E. coli [5]): 8 µg/mL
- activity against the other bacteria tested (other bacteria tested): no activity
- time to complete inhibition of CFU (P. aeruginosa [6]): ≤ 5 min
- time to release of diSC3-5 (depolarization of the cytoplasmic membrane) (P. aeruginosa [6]): ≤ 5 min
- time to complete inhibition of CFU (E. coli [7]): ≤ 5 min
- time to release of diSC3-5 (depolarization of the cytoplasmic membrane) (E. coli [7]): ≤ 5 min
